Molecules are shown by their SMILES. Like-named read-outs stand apart in the source and are kept apart here.

The target in the experiment is T1, FimHtrJ96 (Escherichia coli, UniProt P08191).
T1 construct: coding for the lectin domain of FimH (residues 1-158) with a C-terminal 6-histidine tag; made in house; host or cells: E. coli HB101 (lacking the fim operon), periplasmic extract, plasmid pPKL241
In words: biochemical. The format is binding, uropathogenic E. coli strain J96. The protocol: To measure the dissociation constant for FimH:alkyl or aryl-mannoside binding, two different binding assays were developed. The first binding assay uses [^3H]-mannose. The amount of radioactively labeled mannose bound to FimHtrJ96 was measured at six different concentrations of [^3H]-mannose, and a hyperbolic curve fitted to the resulting data (FIG. 1A). FimHtrJ96 corresponds to the carbohydrate (mannose) binding domain of FimH from the uropathogenic E. coli strain J96. The dissociation equilibrium constant was determined from this graph at the concentration of mannose […], which corresponds to occupation of half of the binding sites.
Surface Plasmon Resonance measurements were performed on a Biacore3000™. In a first experiment, the kinetic constants and maximal binding were determined for the FimH-antibody interaction. Next, a fixed concentration of FimH (close to the KD of the FimH-antibody interaction) in combination with varying concentrations of carbohydrate, were used to determine the dissociation equilibrium constant of the FimH-saccharide interaction in a competition experiment. Every measurement was repeated at least twice, including testing the variation between different protein and saccharide batches.
To eliminate the possibility of different binding strength for full length FimH and FimHtrJ96, the binding of alpha-D-mannose to FimC:FimH complex was also measured. […] The inhibition of [^3H]-mannose binding was used in a displacement assay to determine the dissociation constant for a synthetic butyl mannoside by measuring the amount of [^3H]-mannose bound to the protein in the presence of increasing amounts of the inhibitor (FIG. 1B). […] To investigate the effect of sequential addition of methyl groups to the O1 oxygen of D-mannose, a series of alkyl mannosides were synthesized and the dissociation constants determined using the [^3H]-mannose displacement assay and by surface plasmon resonance (Table 1).
Surface Plasmon Resonance measurements were performed on a Biacore3000™. The Fab fragments of a monoclonal antibody against FimH were covalently immobilised via lysines at 1000 Resonance Units (1000 pg ligand/mm^2) in flowcell Fc2 on a CM5 biasensor chip (BIAapplications Handbook, Biacore AB, Uppsala, Sweden). Immobilisation buffer was 100 mM NaAc pH 5.0 with 100 mM NaCl. The reference flowcell Fc1 was left blank.
Binding of FimH to the immobilized antibody was measured with a Biacore 3000 instrument in running buffer (phosphate buffered saline with 0.005% surfactant P20 and 3 mM EDTA), on both flowcells Fc1 and Fc2 simultaneously, at a flow rate of 30 μl/min and at 25° C. Complete dissociation of FimH was done with running buffer before starting a new binding cycle. For all measurements, the association time was 3 minutes, the dissociation time was 30 min. All binding cycles were performed in duplicate, including a zero concentration cycle of FimH (injection of running buffer).
In a first experiment, the kinetic constants, ka and kd, and the maximal binding Rmax, were determined for the FimH-antibody interaction (FimH concentrations (nM): 2000, 1000, 500, 250, 125, 62.5, 31.25, 15.625, 7.818, 3.911, 1.957, 0). All analyses were performed with the BIAeval software. A Langmuir binding isotherm with a 1:1 stoichiometry was fitted to the data, from which the kinetic constants and maximal binding were obtained.
In the next experiment, samples containing a fixed concentration of FimH (close to the KD of the FimH-antibody interaction) in combination with varying concentrations of saccharide, were used to determine the dissociation constant of the FimH-saccharide interaction in a competition experiment. First, ten-fold dilutions of the saccharide solution were used to determine the concentration range for binding of the saccharide to FimH.

T1 sequence (P08191 22-179): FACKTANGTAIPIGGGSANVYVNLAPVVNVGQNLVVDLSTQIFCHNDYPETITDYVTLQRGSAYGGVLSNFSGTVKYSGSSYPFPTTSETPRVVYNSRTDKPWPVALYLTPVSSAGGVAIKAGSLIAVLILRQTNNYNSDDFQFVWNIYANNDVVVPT

On to `OC[C@H]1O[C@H](O)[C@@H](O)[C@@H](O)[C@@H]1O` [Mannose, α-D-mannose], for which the Kd is 2300 nM. Moreover, the dissociation constant (Kd) (Table 1, O1 alkyl and aryl mannosides, SPR and displacement binding experiments) came to 2300 nM. Further, the “ΔG°” value (Table 1, calculated from KD) was -7.6 kcal/mol. The “ΔG° J96” value (Table 3, calculated from KD) was -7.6 kcal/mol. Besides, where the note is “read-out: KD J96, Table 3, [3H]-mannose displacement assay (mannose measured directly)”, the Kd was 2300 nM.

As a reminder, the Kd is the concentration at which binding is half-saturated.
